The text below walks through data of patent US20250145715A1, “B7-H3 TARGETING FUSION PROTEINS AND METHODS OF USE THEREOF” (GT Biopharma, Inc., priority 2021, published 2025).

Data set [1] concerns HNSCC cell lines (Cal27 trio, Cal33 trio). Description: NK cell CD107a / IFN-γ flow cytometry against HNSCC lines. The format is cell-based, human. The procedure:
FIGS. 27A-27D illustrate the functional validation of B7-H3 TriKE. FIG. 27A is a graph illustrating CD107a expression in PBMCs from healthy donors incubated with Cal27 trio. FIG. 27B is a graph illustrating intracellular IFN-γ production in PBMCs from healthy donors incubated with Cal27 trio. FIG. 27C is a graph illustrating CD107a expression in PBMCs from healthy donors incubated with Cal33 trio. FIG. 27D is a graph illustrating intracellular IFN-γ production in PBMCs from healthy donors incubated with Cal33 trio.
NK cell responses against HNSCC lines in the presence of the B7-H3 TriKE were assessed through either flow cytometry based functional assays, to evaluate NK cell degranulation and cytokine secretion, or IncuCyte imaging assays, to directly assess target killing. NK cell degranulation and IFN-gamma production of B7-H3 TriKE-treated samples were higher compared to that of control samples treated with B7-H3 single domain or IL-15 alone. […] Ongoing experiments will evaluate the functionality and efficacy of the B7-H3 TriKE in vivo.
Frozen PBMCs (N=3) from healthy donors were incubated for 5 hours with (A-B) Cal27 trio and […] Cal33 trio (each trio consisting of a HNSCC WT line and 2 clones of HNSCC FANCA KO lines) in different treatments: no treatment or 3 nM IL-15, MOPC, B7-H3 SD and B7-H3TriKE to evaluate CD107a expression (as a marker for degranulation) and intracellular IFN-γ production. Error bars indicate standard error of mean, and statistical significance was determined as *p<0.05, **p<0.01, ***p<0.001 and ****p<0.0001

In data set [2] the test system is NK cells (CD45+CD56+CD3−) in PBMCs, with or without OVCAR8. Description: Mass cytometry (CyTOF) of TriKE activated NK cells. Type of data set: cell-based, human. The method, then:
FIG. 31 illustrates high dimensional analysis of cam1615B7-H3 activated NK cells. Concatenated analysis of three donors PBMCs incubated alone, with 30 nM cam1615B7-H3 TriKE, with OVCAR8 tumor (2:1 E:T), or with 30 nM cam1615B7-H3 TriKE and OVCAR8 tumor. Data was visualized in viSNE (Cytobank) and gated on CD45+CD56+CD3-cells.
For mass cytometry (CyTOF) studies, PBMCs were incubated alone or with OVCAR8s at a 2:1 ratio+/−cam1615B7-H3 (30 nM) for 24 h. After harvesting samples, cells were counted, and viability was measured using trypan blue exclusion. Two hundred thousand cells from each donor were aliquoted into 5-mL polystyrene U-bottom tubes for barcoding and CyTOF staining. Cells were stained with Cisplatin (Fluidigm Product #201064, San Francisco, CA, USA), followed by barcoding using the Cell-ID 20-Plex Pd Barcoding Kit (Fluidigm Product #201060). After barcoding, all cells were combined into a single 5-mL polystyrene U-bottom tube and incubated in the surface marker antibody cocktail for 30 min at 4° C.
Following surface staining, cells were then fixed using 2% PFA. For intracellular staining, cells were permeabilized by incubation with Triton X 0.1% for 5 min at room temperature, followed by incubation with intracellular antibody cocktail for 30 min at 4° C. Stained cells were then incubated overnight with Cell-ID Intercalator (Fluidigm Product #201192A). The following morning cells were washed and run on the CyTOF 2 instrument. Wash steps were completed using either Maxpar PBS (Fluidigm Product #201058), Maxpar Cell Staining Buffer (Fluidigm Product #201068), or Millipure Water at 1600 RPM for 4 min. For custom tagged antibodies: Conjugation of heavy metals to a specific ScFv is conducted using the Maxpar antibody labeling kit (Fluidigm). The protocol involves partial antibody reduction using 0.5 M TCEP: Pierce Bond-Breaker TCEP Solution (Thermo Scientific Product #77720, Waltham, MA, USA), as well as comprehensive buffer exchange using centrifugal filter units of both 3 kDa and 50 kDa size (Millipore Product #UFC500396, UFC505096, Burlington, MA, USA). After conjugation of the antibody, yield is measured, and the final reagent is stored in antibody stabilizer (Boca Scientific Product #131 000, Westwood, MA, USA). The reagent is then titrated and verified against known flow cytometry antibodies. Data from the three donors was concatenated. FCS file concatenation was completed with a combination of Cytobank and Flowjo. All Visne analyses were carried out in Cytobank.
As illustrated in FIG. 31 high dimensional analysis of cam1615B7-H3 TriKE activated cells was performed. To broadly evaluate the phenotypic and functional effects of TriKE activation on NK cells, a custom, 42 parameter, CyTOF (mass cytometry) NK cell targeted panel was used. PBMCs were left untreated, incubated with cam1615B7-H3 TriKE for 24 h, incubated with tumor (OVCAR8s) for 24 h, or incubated with tumor and cam1615B7-H3 TriKE for 24 h. Cells were then stained, fixed, and run on a CyTOF2. Samples (three biologic replicates per condition) were concatenated, and data was visualized with viSNE, which uses all expression information to display localization of individual cells in a 2D plot in order to explore the multidimensional data (FIG. 31). The data indicated no changes in distributions of CD56^brights versus CD56^dims. Activation markers CD25 and CD69 were both induced with TriKE treatment, as was the chemokine receptor CXCR3. Granzyme B, involved in cytolytic activity of NK cells, was primed on effectors+TriKE, but in the presence of tumor targets (effectors+tumor+TriKE) these Granzyme B high cells disappeared, likely as a cause of ADCC driven specific degranulation. […] This also seemed to be the case with NKG2D, but the natural cytotoxicity receptors (NCR: NKp30, NKp44, and NKp46) were less affected.

[3] abbreviates: vs B7-H3 single domain or IL-15 alone.
[4] abbreviates: effectors exposed to tumor in the presence of TriKE.

Consider “B7-H3 TriKE: camelid nanobodies targeting CD16 and B7-H3 joined by IL-15 and two linkers; sequence table equates the name with cam1615B7-H3”, for which the “NK cell activity (CD107a, IFN-γ) against HNSCC” value in data set [1] (3 nM, 5 hours, Cal27 trio and Cal33 trio, healthy donor PBMCs) is “induced NK cell activity against HNSCC”. For the same substance, in data set [1] (setting [3]), the “NK cell IFN-gamma production against HNSCC” value is on record as “higher” and the “NK cell degranulation against HNSCC” value was “higher”.
With “cam1615B7-H3: second-generation TriKE: humanized camelid anti-CD16 VHH, human wild-type IL-15, anti-B7-H3 mAb 376.96 scFv; SEQ ID NO:1”, in data set [2] (30 nM, 24 h), the “distributions of CD56brights versus CD56dims” value was “no changes”. In data set [2] (30 nM, 24 h, TriKE treatment), the CD25 expression entry is “induced”, the CD69 expression entry is “induced” and the CXCR3 expression entry is recorded as “induced”. Also, in data set [2] (setting [4]), the TIGIT result is “did not seem as affected”; the “activating KIR (KIR2DS1 and KIR2DS4) expression” value is given as “reduced in expression”; the “inhibitory KIR (KIR2DL1, KIR2DL3 and KIR3DL1) expression” value is given as “reduced in expression”; the “natural cytotoxicity receptors (NKp30, NKp44, NKp46)” value is listed as “less affected”. Besides, in data set [2] (effectors+TriKE), the “Granzyme B” value is listed as “primed”. Further, the “Granzyme B high cells” value in data set [2] (effectors+tumor+TriKE) is on record as “disappeared”.
